Test results published in a melting point compilation (Tetko et al.; mined from patent text by program, amines drawn as free bases though some values may be those of a salt).

melting point [°C]	Structure (SMILES)
148 to 150	O=[N+]([O-])c1cc(C(O)CCN2CCC(c3ccccc3)CC2)ccc1C1CCCCC1 (configuration not stated)
96.5 to 97.7	Cc1ccc(S(=O)(=O)N2CCC[C@H]2CN2CCN(C)CC2)cc1
138 to 139	O=C(CCCN1CCC(C(O)(c2ccccc2)c2ccccc2)CC1)c1ccc(N2CCCCC2)cc1
68	Cc1ccc2c(ccn2C)c1O
127 to 129	Cc1c(O)ccc2cc(Br)ccc12
199	Nc1c(SC(F)(F)F)c(C(=O)O)nn1-c1c(Cl)cc(C(F)(F)F)cc1Cl
173 to 175	O=S(=O)(c1ccccc1)n1ccc2ccc3c4cc(Br)ccc4[nH]c3c21
94 to 96	CC(C)(C)c1ccc2c(c1)C(=O)CC2
234 to 236	N#Cc1cnn(-c2ccc(C(F)(F)F)cc2[N+](=O)[O-])c1N
94 to 96	Cc1cc(-c2ccnc(NCc3ccccc3)c2)n(-c2cccc(F)c2)n1
225 to 227	Cc1cc2c(C#N)ccc(C#N)c2cc1C
152 to 153	c1ccc2c(c1)N=C(c1ccncc1)c1cccc3c1N2CC3
158	CC(C)NC(=O)Nc1ccc(Oc2ccc3sncc3c2)c(C(F)(F)F)c1
223 to 225	CCCCOc1ccc(NS(=O)(=O)c2ccc(N3CCNC3=O)cc2)cc1
167 to 168	C[C@@H](NC(=O)c1csc(-c2ccc(C(F)(F)F)cc2)n1)[C@](O)(Cn1cncn1)c1ccc(F)cc1F
224 to 225	C#CC(Cn1ncnn1)n1nnc2cc3c(=O)n(C4CC4)nnc3cc2c1=O (configuration not stated)
178 to 180	O=c1c(CCCc2ccncc2)cc2cccnc2n1-c1cccnc1
201	Cn1cnnc1C(O)(c1ccc(I)cc1)c1ccc2c(c1)C(c1cccc(Cl)c1)Nc1nnnn1-2 (configuration not stated)
191 to 193	Cc1ccc(/C=C/C2=CCN(Cc3nc4ccccc4[nH]3)CC2)o1
137	CC(C)(C)NS(=O)(=O)c1ccccc1OC(F)(F)F
148 to 150	CCCCc1nc2c(N)nc3cccnc3c2n1CCCCNC(=O)OC(C)(C)C
84 to 87	COc1cc(C)c(C(=O)c2c(OC)ncc(Br)c2Cl)c(OC)c1OC
93 to 95	CC1Nc2cc(F)c(F)cc2-n2cccc21 (configuration not stated)
200 to 220	Cc1ccc(-c2cc3ncnc(Nc4ccc5[nH]ccc5c4)c3s2)cc1
151 to 153	COc1cc(OC)c(C(O)=S)cc1C

melting point [°C]	Structure (SMILES)
> 260	N#CNC1NN=C(c2ccc3ccccc3c2)S1 (configuration not stated)
179 to 180	COc1c(C2CCN(CCCCNC(=O)c3sc(-c4ccc(C(F)(F)F)cc4)nc3CO)CC2)ccc2c1CCCC2
88 to 90	OCc1ccc(OCc2ccccc2)cc1O
295 to 297	CC(C)(C)n1nc2c(=O)[nH]c3ccccc3c2c1CO
108	CCC(=O)Oc1cc(OC)cc(OC)c1C(=O)C=Cc1cccn1C
155 to 157	CCc1cc(C2(c3ccc(F)c(-c4cncc(F)c4)c3)N=C(N)N(C)C2=O)cc(CC)n1 (configuration not stated)
111 to 113	COc1ccc(C2CCN(c3c(C)c(C)c4c(c3C)C(c3ccsc3)C(C)(C)O4)CC2)cc1OC (configuration not stated)
62 to 65	COc1cccnc1OCC(O)CO (configuration not stated)
116 to 119	COC(=O)c1cc2c(Sc3ccc(C)cc3)cncc2s1
251	COc1ccc(C(=O)c2ccc3cc(C(=O)c4ccc(OC)cc4)ccc3c2)cc1
130	O=C(Nc1n[nH]c(=S)s1)N[C@@H](Cc1ccccc1)C(=O)O
214	CC1NC(=O)NN=C1c1ccccc1 (configuration not stated)
115 to 117	COc1ccc(N)cc1C(=O)NCc1ccc(C(F)(F)F)cc1
173 to 175	CN(C)C=Nc1nnnc2c1ncn2C1CC(O)C(CO)O1 (configuration not stated)
179 to 181	O=C(Nc1c(C(O)(C(F)(F)F)C(F)(F)F)ccc2ccccc12)c1cccc(Cl)c1
91 to 92	CCc1nccn1-c1nc(-c2ccc(Cl)cc2)c(CCCOc2ccccc2C)o1
134	O=C(c1cccs1)c1cnn2c(-c3cccc(-c4nnn(CCO)n4)c3)ccnc12
216 to 218	CNC(=O)[C@H]1CN(c2ccc3c(c2)oc(=O)n3C(C)C)C(=O)O1
228 to 230	COc1cccc(S(=O)(=O)c2ccc3c(c2)[C@@H](Nc2ccnc(Cl)n2)[C@](C)(O)C(C)(C)O3)c1
213 to 214	CCOC(=O)c1sc(NC(C)=O)nc1CCc1ccc(NC(=O)OC(C)(C)C)cc1
161 to 163	CSc1nc2cc(-c3cccnc3)cc(N)n2n1
248 to 250	O=CN1CCC(C(=O)O)=Cc2cc(Br)ccc21
194 to 196	CCCN1OCC(=Cc2cc(C(C)(C)C)c(O)c(C(C)(C)C)c2)C1=O
166 to 167	CSc1c[nH]c2ncnc(Cl)c12
58 to 63	CCCCCCCCC1(CCCCCCCC)c2cc(N)ccc2-c2ccc(N)cc21

melting point [°C]	Structure (SMILES)
44	COC(=O)Cc1ccc(C(C)=O)cc1
164 to 166	CC(=O)COc1cc(-n2c(=O)cc(C(F)(F)F)n(C)c2=O)c(F)cc1Cl
193 to 194	N#Cc1c(N2CCN(Cc3ccccc3)CC2)nn2c(-c3ccncc3)ccnc12
106 to 110	COC1=CCC2=C(CCC3C2CCC2(C)C(=O)CCC32)C1 (configuration not stated)
189	CC1(C)Oc2ccc([N+](=O)[O-])cc2C(n2ccccc2=O)=C1NC(=O)C(F)(F)F
104	COCOc1ccc(C=CC(=O)c2c(O)cc(OC)cc2OC)cc1
182 to 183	COC1=CC(=O)c2ccccc2C1=O
228 to 235	CCN1C(=O)CCCc2ccc(Nc3ncc(Cl)c(Nc4c(F)cccc4C(=O)NC)n3)cc21
146	O=C(O)c1cccc(Oc2ccc(C(F)(F)F)cn2)c1
220 to 222	O=C(O)[C@H](CSc1ccccc1[N+](=O)[O-])N1C(=O)c2ccccc2C1=O
118 to 120	COC(=O)C(/C(=C\c1ccccc1)C(N)=O)=C(\C)c1cc(OC)c(OC)c(OC)c1
130	COc1cccc2c(Cl)c(C)c(C)nc12
144 to 146	CC1(C)CC(N2C(=O)c3ccc(C(=O)OCC(O)c4ccccc4)cc3C2=O)CC(C)(C)N1 (configuration not stated)
45 to 46	COc1nsc2c1C(=O)CCC2
177 to 178	CCCOc1ccccc1-c1nc(NC(=O)CCC)cc(=O)[nH]1
94 to 96	CC(C)Cn1c(=O)n(C)c(=O)c2c(SCCCN=[N+]=[N-])c(Cc3cccc4ccccc34)sc21
175 to 177	O=[N+]([O-])c1ccc2nc(N3CCNCC3)cc(Cl)c2c1
173 to 174	COC(=O)c1ccc(-c2nnc(-c3ccc(C(F)(F)F)cc3)o2)c([N+](=O)[O-])c1
90 to 91	CCCCCCC(=N)NC(=S)Nc1ccc(OC(F)(F)F)cc1
112 to 114	Fc1ccc(CC[C@H]2CNCCN2)cc1
101 to 102	COc1cnccc1CCCOc1cccnc1Oc1ccccc1
79 to 80	CC(C)(CO)CCCCCC(O)CCCCC(C)(C)CO (configuration not stated)
161 to 164	COC(=O)C1Cc2cc3c(cc2C(c2ccc([N+](=O)[O-])cc2)=NN1)OCO3 (configuration not stated)
233 to 234	OCCNc1ccnc2cc3c(cc12)OCO3
240	NC(=O)c1nccn1C1Cc2cc(Br)ccc2C1=O (configuration not stated)

melting point [°C]	Structure (SMILES)
80	CCCCCCCCCCCCS(=O)c1c(O)cc(C)oc1=O (configuration not stated)
153 to 155	COc1ccc(S(=O)(=O)c2cnc(C)nc2Nc2c(C)cc(C)cc2C)cc1
213 to 215	Cc1c(-c2ccccc2)n(-c2c(F)cccc2F)c(-c2ccccc2Cl)cc1=O
73 to 75	CCOC(=O)C(Cc1ccc(Cl)cc1)NC(=S)Nc1ccc(C(C)C)cc1 (configuration not stated)
87 to 89	C1CCC(CC2CNCCNCCNCCNCCN2)CC1 (configuration not stated)
215 to 216	Cc1ccc(-c2nnc[nH]2)cc1-c1cc2cnc(NC3CCOCC3)nc2n(C)c1=O
117 to 118	CN(C)CCOc1cccc2c1c1cccc3c1n2C(c1ccccc1)CO3 (configuration not stated)
280 to 286	COC(=O)c1nc(C)c2[nH]c3ccccc3c2c1I
70 to 72	O=C(CCCO)NCc1ccccc1
42 to 44	O=C(CCl)C1=NOC(c2ccccc2F)C1 (configuration not stated)
237 to 238	Cc1cc(C)c2ncc(NC(=O)c3cc(C(C)C)c(O)c(C(C)C)c3)c(-c3ccccc3Cl)c2c1
237 to 238	Cc1ccc(-c2cc(=O)cc(C(=O)O)o2)cc1
75 to 78	O=c1[nH]c(=O)n([C@@H]2CO[C@@H](CO)O2)cc1/C=C/Br
130 to 133	COc1ccc(Cc2oc3cccc(O)c3c2C)cc1
127 to 129	Cn1cc(Oc2ccc(Cl)c(Cl)c2)c(=O)c(-c2cccc(C(F)(F)F)c2)c1
169 to 170	CCOCc1nc2cnc3cc(Br)ccc3c2n1CC1CCN(C(=O)OC(C)(C)C)CC1
168 to 169	CC(C)CO/N=C(\C(=O)O)c1csc(NC(c2ccccc2)(c2ccccc2)c2ccccc2)n1
165 to 170	O=C(Nc1ccccc1)NC1C(=O)N(CCO)c2ccccc2N(CC23CC4CC(CC(C4)C2)C3)C1=O (single isomer, unassigned; (-))
262 to 265	CC1(C)C(=O)Oc2ccc3cc(C(=O)O)c(Cn4cncn4)cc3c21
83.5 to 85	O=C(c1cccc([N+](=O)[O-])c1)N1CCOCC1
152	CCn1cc(C=O)c2nc(N3CCN(Cc4ccccc4)CC3)ncc2c1=O
111 to 113	O=S(=O)(c1ccc(Cl)cc1)C(CCc1ccccc1)c1cc(F)ccc1F (configuration not stated)
103 to 105	O=S(=O)(c1ccc2ccccc2c1)n1ccc2ccccc21

Structure (SMILES)	melting point [°C]
C=CCN1CC(C)N(C(c2ccc(C(=O)N(CC)CC)cc2)c2cccc(O)c2)CC1C (configuration not stated)	170 to 171
O=C(O)c1cn(C2COC2)c2c(F)c(N3CCNCC3)cc(F)c2c1=O	> 300
O=C1NC(=O)C(C2CCCC2)C(=O)N1	222 to 223
Ic1cnc(N2CCNCC2)nc1	39 to 40
